Measured values: patent US20230009608A1, “GRK2 INHIBITORS AND USES THEREOF” (Cygnal Therapeutics, Inc., priority 2020, published 2023)
Like-named read-outs stand apart in the source and are kept apart here.

Tests used:
[1] = system: PAXF1657 control empty vector cell line; test: 7-day proliferation assay, PAXF1657 control empty vector cell line (Example 9); assay type: cell-based; conditions: 168 h; Cell Line: PAXF1657 empty vector (EV) cell line; 7-day; read-out: C: 7-day proliferation assay: IC50 GeoMean
In short: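 PAXF1657 isogenic lines (GRK2-overexpressing vs empty vector; CRISPR GRK2 knockout vs non-targeting control clones) seeded 500 cells/well in RPMI1640/10% FBS and treated next day with 10-point dilutions, 30 μM-0.0002 μM final, 0.3% DMSO. Media with compound refreshed after 3 days; viability read by CellTiter-Glo luminescence at day 7.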

GRK2 = target: T1, GRK2 (Homo sapiens, UniProt P25098); test: ADPGlo GRK2 Inhibition Assay (Example 8); assay type: biochemical; conditions: read-out: A: Enzymatic GRK2: IC50 (nM) (Example 8)
T1 construct: purchased SignalChem A14-10G
T1 sequence (P25098 1-689): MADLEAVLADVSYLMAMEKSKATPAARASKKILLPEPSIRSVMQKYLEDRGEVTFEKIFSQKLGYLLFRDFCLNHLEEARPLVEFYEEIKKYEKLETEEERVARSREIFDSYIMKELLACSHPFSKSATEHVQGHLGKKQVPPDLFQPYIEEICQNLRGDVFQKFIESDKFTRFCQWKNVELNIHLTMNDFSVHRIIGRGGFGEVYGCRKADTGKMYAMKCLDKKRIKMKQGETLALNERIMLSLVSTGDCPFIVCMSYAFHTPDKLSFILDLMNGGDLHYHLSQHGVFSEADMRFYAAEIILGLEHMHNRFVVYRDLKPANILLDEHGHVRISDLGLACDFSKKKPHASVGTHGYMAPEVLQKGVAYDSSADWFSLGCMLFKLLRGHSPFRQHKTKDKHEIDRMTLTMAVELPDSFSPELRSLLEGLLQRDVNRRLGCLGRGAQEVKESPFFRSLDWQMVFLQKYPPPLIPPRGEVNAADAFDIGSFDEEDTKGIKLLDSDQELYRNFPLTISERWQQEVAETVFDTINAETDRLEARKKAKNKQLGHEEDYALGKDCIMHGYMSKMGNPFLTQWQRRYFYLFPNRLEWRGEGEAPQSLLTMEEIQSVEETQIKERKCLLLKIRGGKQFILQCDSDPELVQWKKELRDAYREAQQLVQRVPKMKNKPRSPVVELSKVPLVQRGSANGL
In short: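 GRK2 (15 nM 2× enzyme solution) was preincubated 15 min with compound, then reacted 180 min at room temperature with 2× mix of 20 μM ATP plus GRKtide in HEPES pH 7.5, MgCl2, Tween-20, DTT. ADP was detected by ADP-Glo luminescence. Percent inhibition was normalised to enzyme and no-enzyme controls, with dose-response curves from threefold dilutions starting at 100 μM.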

[2] = Enzyme Assay A, ADPGlo (Example 8)

SMILES | IC50 [1] | IC50 (GRK2; [2]) | IC50 (GRK2; ADPGlo GRK2 enzyme assay)
Cn1c(CNc2cccc(C(=O)NCc3cccc(OCC(F)F)c3)c2)nnc1-c1ccncn1 | > 10000 nM | 43 nM | 
Cn1ncc(Br)c1CNC(=O)c1cccc(NCc2nnc(-c3ccncn3)n2C)c1 | > 10000 nM | 22 nM | 
Cn1c(CNc2cccc(C(=O)N[C@@H]3CCOc4ccc(C(F)(F)F)cc43)c2)nnc1-c1ccncn1 | 594 nM | 8.09 nM | 
CCc1cnccc1CNC(=O)c1cccc(NCc2nnc(-c3ccncc3)n2CCO)c1 | > 30000 nM |  | 14.3 nM
CC(NC(=O)c1cccc(NCc2nnc(-c3ccncn3)n2C)c1)c1ncnn1C (centres unmarked) | > 10000 nM | 230 nM | 
Cn1c(CNc2cccc(C(=O)NCc3c(F)cccc3-n3cccn3)c2)nnc1-c1ccncn1 | > 10000 nM | 24 nM | 
Cc1nc(C(C)NC(=O)c2cccc(NCc3nnc(-c4ccncn4)n3C)c2)no1 (centres unmarked) | > 30000 nM | 67 nM | 
Cn1c(CNc2cccc(C(=O)N[C@H]3COCc4ccccc43)c2)nnc1-c1ccncn1 | > 11800 nM |  | 66 nM
COc1cccc([C@@H](C)NC(=O)c2ccnc(NCc3nnc(-c4ccncn4)n3C)c2)c1 | 468 nM |  | 9.89 nM
Cn1c(CNc2cccc(C(=O)NCc3cccc(C(F)F)c3)c2)nnc1-c1ccncn1 | > 10000 nM | 22 nM | 
COc1ccc(C(C)NC(=O)c2cccc(NCc3nnc(-c4ccncn4)n3C)c2)cn1 (centres unmarked) | 1710 nM |  | 22.6 nM
COc1ccc2c(c1)OCC[C@H]2NC(=O)c1cccc(NCc2nnc(-c3ccncn3)n2C)c1 | 485 nM | 60.9 nM | 
COc1c(C)cccc1CNC(=O)c1cccc(NCc2nnc(-c3ccncn3)n2C)c1 | 2060 nM | 29 nM | 
CN1Cc2ccccc2C(NC(=O)c2cccc(NCc3nnc(-c4ccncn4)n3C)c2)C1 (centres unmarked) | 7670 nM |  | 45.9 nM
Cc1cccnc1[C@@H](C)NC(=O)c1cccc(NCc2nnc(-c3ccncn3)n2C)c1 | 3790 nM |  | 26 nM
CC(C)NS(=O)(=O)c1ccccc1CNC(=O)c1cccc(NCc2nnc(-c3ccncn3)n2C)c1 | > 15900 nM |  | 65.8 nM

SMILES | IC50 [1] | IC50 (GRK2; [2]) | IC50 (GRK2; ADPGlo GRK2 enzyme assay)
Cn1c(CNc2cccc(C(=O)NCc3ccncc3C(F)(F)F)c2)nnc1-c1ccncn1 | > 10000 nM | 33 nM | 
Cn1c(CNc2cccc(C(=O)NCc3ccccc3CN3CCOCC3)c2)nnc1-c1ccncn1 | 6710 nM |  | 71.5 nM
Cn1c(CNc2cccc(C(=O)N[C@H](CO)c3cc(F)ccc3F)c2)nnc1-c1ccncn1 | > 30000 nM |  | 43.4 nM
CNS(=O)(=O)c1cccc(F)c1CNC(=O)c1cccc(NCc2nnc(-c3ccncc3)n2C)c1 | 1240 nM | 15.2 nM | 
C[C@H](NC(=O)c1cccc(NCc2nnc(-c3ccncn3)n2C)c1)c1ccncc1 | 771 nM | 45 nM | 
CCc1cccnc1CNC(=O)c1cccc(NCc2nnc(-c3ccncn3)n2C)c1 | 4510 nM |  | 22.6 nM
Cn1c(CNc2cccc(C(=O)NCc3cccnc3)c2)nnc1-c1ccncn1 | > 10000 nM | 540 nM | 
CN(CCO)S(=O)(=O)c1ccccc1CNC(=O)c1cccc(NCc2nnc(-c3ccncn3)n2C)c1 | > 11800 nM |  | 42 nM
Cc1ocnc1CNC(=O)c1cccc(NCc2nnc(-c3ccncc3)[nH]2)c1 | > 7500 nM | 8.3 nM | 
C#Cc1cc(CNC(=O)c2cccc(NCc3nnc(-c4ccncc4)[nH]3)c2)cc(OS(=O)(=O)F)c1 | 10800 nM | 34.9 nM | 
Cc1ccc(C#N)cc1CNC(=O)c1cccc(NCc2nnc(-c3ccncc3)n2CCO)c1 | > 4600 nM |  | 4.82 nM
Cn1c(CNc2cccc(C(=O)NCc3cocn3)c2)nnc1-c1ccncn1 | > 30000 nM | 27 nM | 
Cn1c(CNc2cccc(C(=O)NCC3COc4ccccc43)c2)nnc1-c1ccncn1 (centres unmarked) | > 5210 nM |  | 54.7 nM
CC(NC(=O)c1cccc(NCc2nnc(-c3ccncn3)n2C)c1)c1cnn(C)c1 (centres unmarked) | 190 nM | 17 nM | 
CCCCCOc1ccc2c(c1)[C@@H](NC(=O)c1cccc(NCc3nnc(-c4ccncn4)n3C)c1)CO2 | 236 nM |  | 8.3 nM
